Assay [1] concerns Human immunodeficiency virus 1. Description: Antiviral activity against HIV1 3B infected in human MT4 cells assessed as inhibition of virus-induced cytopathic effect by MTT assay. The settings on record: Human immunodeficiency virus 1, 3B. Type of assay: functional, organism-based.
Assay [2] has as its target T1, Human immunodeficiency virus type 1 integrase (Human immunodeficiency virus 1, UniProt Q7ZJM1). The assay is described as follows: Inhibition of wild type HIV1 integrase strand transfer activity using 5'-end 32P-labeled linear oligonucleotide as substrate preincubated for 30 mins.
Another assay concerns HCT-116. Description: Cytotoxicity against human HCT116 p53 +/+ and -/- cells after 72 hrs by MTT assay. Type of assay: cell-based. As to conditions: HCT-116, 72 h. (Formazan colour is commonly taken as a measure of viable cells.)
A short description of assay [3]: Inhibition of human Flag-tagged LEDGF interaction to His6-tagged HIV1 integrase expressed in Escherichia coli BL21 (DE3) preincubated for 20 mins measured after 1 hr by AlphaScreen proximity luminescent assay.
The target of assay [4] is T1, Human immunodeficiency virus type 1 integrase. Description: Inhibition of wild type HIV1 integrase 3'-processing activity using 5'-end 32P-labeled linear oligonucleotide as substrate preincubated for 30 mins.
A short description of assay [5]: Inhibition of human Flag-tagged LEDGF interaction to His6-tagged HIV1 integrase expressed in Escherichia coli BL21 (DE3) at 1000 uM preincubated for 20 mins measured after 1 hr by AlphaScreen proximity luminescent assay. On the technique in general: Alpha assays give light when donor and acceptor beads are brought close together.

Molecules are shown by their SMILES. Calls of active or inactive are those of the source. No cut-off for these calls is given here.

The values below come from ChEMBL document CHEMBL2311445, “Discovery of novel inhibitors of LEDGF/p75-IN protein-protein interactions” (Bioorg Med Chem, 2013).

One may read the IC50 as the point on the concentration scale where inhibition reaches its midpoint. By EC50 is commonly meant the concentration that produces a half-maximal response. Read a low EC50 as a more potent agent.

T1 sequence (Q7ZJM1 whole entry): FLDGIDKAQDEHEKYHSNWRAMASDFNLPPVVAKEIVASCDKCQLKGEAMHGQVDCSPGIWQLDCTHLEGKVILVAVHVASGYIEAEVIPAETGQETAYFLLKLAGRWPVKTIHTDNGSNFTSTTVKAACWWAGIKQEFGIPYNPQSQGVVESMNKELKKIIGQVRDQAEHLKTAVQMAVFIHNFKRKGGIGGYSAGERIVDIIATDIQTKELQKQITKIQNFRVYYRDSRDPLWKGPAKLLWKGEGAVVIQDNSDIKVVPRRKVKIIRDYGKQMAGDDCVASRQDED

For `CCOc1cccc(/C=N/NC(=O)c2n[nH]c3c2CCC3)c1O`, the IC50 is greater than 4 µM in assay [1], greater than 100 µM in assay [2], 2 µM in assay [3] and greater than 100 µM in assay [4]. The EC50 with HCT-116 turned out to be 6 µM.

For `c1ccc(/N=N/C(=N/Nc2ccccc2)c2ccccc2)cc1`, the IC50 in assay [1] was greater than 5 µM; in assay [2], greater than 100 µM; in assay [3], 20 µM; in assay [4] it was greater than 100 µM. In addition, the EC50 in the assay on HCT-116 is greater than 10 µM.

For `O=C(N/N=C/c1c(O)ccc2ccccc12)c1cc[nH]n1`, the IC50 in assay [1] was greater than 14 µM; in assay [2] it was greater than 100 µM; in assay [3] it was 7 µM; in assay [4] it was greater than 100 µM. Further, the response with HCT-116 was half-maximal at 1.5 µM (EC50).

Consider `NNC(=O)c1ccncc1`, for which, in assay [5], the inhibition entry is “inactive”.

Take `COc1ccccc1N1CCN(/N=C/c2ccc(Cl)c([N+](=O)[O-])c2)CC1`: the IC50 in assay [1] is greater than 100 µM; in assay [2], greater than 100 µM; in assay [3] it was 21 µM; in assay [4], greater than 100 µM. In addition, the EC50 in the assay with HCT-116 was greater than 10 µM.

`COCC/N=c1/scc(-c2cccs2)n1/N=C/c1cc(Br)c(O)c(OC)c1`: the IC50 in assay [1] was greater than 15 µM; in assay [2], greater than 100 µM; in assay [3], 14 µM; in assay [4] it was greater than 100 µM. This compound also showed an EC50 in the assay on HCT-116 greater than 10 µM.

In the case of `CC/N=c1/scc(-c2cc(OC)ccc2OC)n1/N=C(\C)c1ccco1`, the IC50 was greater than 60 µM in assay [1], greater than 100 µM in assay [2], 8 µM in assay [3] and greater than 100 µM in assay [4]. Besides, in the assay on HCT-116, the EC50 was greater than 10 µM.

Consider `COc1ccc(OC)c(/C=N/NC(=O)c2n[nH]c3c2CCC3)c1`, for which the IC50 in assay [1] is greater than 40 µM; in assay [2], greater than 100 µM; in assay [3], greater than 50 µM; in assay [4], greater than 100 µM. The EC50 in the assay with HCT-116 is greater than 10 µM.

Regarding `O=C(N/N=C/c1c(O)ccc2ccccc12)c1n[nH]c2c1CCC2`, the IC50 in assay [1] was greater than 17 µM; in assay [2] it was greater than 100 µM; in assay [3], 4 µM; in assay [4] it was greater than 100 µM. Moreover, the EC50 with HCT-116 was less than 1 µM.

`COc1ccccc1NS(=O)(=O)c1ccc(N/N=C(\C)c2ccccc2Br)c([N+](=O)[O-])c1`: the concentration for half-maximal inhibition (IC50) was 12 µM in assay [1], greater than 100 µM in assay [2], 6 µM in assay [3] and greater than 100 µM in assay [4]. In addition, the EC50 with HCT-116 was greater than 10 µM.

With `O=C(N/N=C/c1ccccc1O)c1cnccn1`, the IC50 in assay [1] is greater than 40 µM; in assay [2], greater than 100 µM; in assay [3], 0.4 µM; in assay [4] it was greater than 100 µM. In addition, the EC50 in the assay with HCT-116 amounted to 9 µM.

For `CCN(CC)c1ccc(/C=C2\CCC(/C=N/N=C/c3cccnc3)=C2N2CCOCC2)cc1`, the IC50 in assay [1] is greater than 20 µM; in assay [2], greater than 100 µM; in assay [3] it was 3 µM; in assay [4], greater than 100 µM. The same compound returned an EC50 with HCT-116 greater than 10 µM.

On to `COCCN1C(=O)/C(=C\NNC(=O)c2cc(Cl)ccc2O)C(=O)NC1=S`, for which the IC50 in assay [1] was greater than 40 µM; in assay [2], 80 µM; in assay [3], 13 µM; in assay [4], 90 µM. In the assay with HCT-116, the EC50 was 10 µM.

Turning to `CN(C)c1ccc(/N=N/c2ccc(Cl)cc2)cc1`, the IC50 is greater than 100 µM in assay [1], greater than 100 µM in assay [2], 2 µM in assay [3] and greater than 100 µM in assay [4]. In addition, in the assay with HCT-116, the half-maximal effective concentration (EC50) was greater than 10 µM.

In the case of `Cc1ccc(N/N=C2\Sc3ccccc3C2=O)cc1`, the IC50 in assay [1] is greater than 100 µM; in assay [2] it was greater than 100 µM; in assay [3], 6 µM; in assay [4] it was greater than 100 µM. This compound registered an EC50 with HCT-116 of 10 µM.

On to `C/C(=N\N1CCN(Cc2ccccc2Cl)CC1)c1ccc([N+](=O)[O-])cc1`, for which the IC50 is greater than 100 µM in assay [1], greater than 100 µM in assay [2], 19 µM in assay [3] and greater than 100 µM in assay [4]. The compound further showed an EC50 with HCT-116 greater than 10 µM.

For `C/C(=N\Nc1ccc(S(=O)(=O)Nc2ccccc2)cc1[N+](=O)[O-])c1cc(O)ccc1O`, the IC50 in assay [1] was greater than 28 µM; in assay [2], greater than 100 µM; in assay [3] it was 13 µM; in assay [4] it was greater than 100 µM.
